The values below come from patent US20240109881A1, “Heteroaryl Compounds as Ligand Directed Degraders of IRAK4” (Bristol-Myers Squibb Company, priority 2022, published 2024).

Structures are written as SMILES.

For this assay, the target named is T1, IRAK4 (Homo sapiens, UniProt Q9NWZ3).
T1 construct: endogenous in cells; host or cells: THP-1 cells
T1 sequence (Q9NWZ3 1-460): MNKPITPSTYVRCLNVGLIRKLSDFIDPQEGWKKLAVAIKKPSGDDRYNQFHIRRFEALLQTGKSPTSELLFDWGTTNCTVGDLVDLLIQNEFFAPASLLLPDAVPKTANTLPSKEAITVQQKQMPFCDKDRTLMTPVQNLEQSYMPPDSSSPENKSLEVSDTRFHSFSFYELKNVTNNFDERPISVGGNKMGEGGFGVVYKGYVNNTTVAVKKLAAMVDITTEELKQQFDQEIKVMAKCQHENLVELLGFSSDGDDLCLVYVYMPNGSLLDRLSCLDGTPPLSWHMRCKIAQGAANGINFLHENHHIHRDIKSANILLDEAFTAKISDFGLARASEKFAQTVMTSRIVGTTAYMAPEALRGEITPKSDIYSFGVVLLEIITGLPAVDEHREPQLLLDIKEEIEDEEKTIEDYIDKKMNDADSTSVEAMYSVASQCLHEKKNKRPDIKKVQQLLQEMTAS
The assay can be described thus: LVL THP1 HTRF (THP1 Homogeneous Time Resolved Fluorescence). In kind it is cell-based. The note with it: THP1 cells, 18 h incubation with compound; for DC50: read-out: LVL THP1 HTRF EC50. The protocol: Cell culture media was prepared in a tissue culture hood in a sterile environment by adding 10% FBS and 1% Penicillin Streptomycin to 500 mL no phenol red RPMI 1640 media. The media was filtered through a Nalgene Bottle Top Filter and stored at 4° C.
For Homogenous Time Resolved Fluorescence (HTRF) assays, a Cisbio HTRF kit was used, which included: Lysis Buffer #1 4×, Blocking Reagent #3 100×, 20× Antibody 1 (Anti-IRAK4 d2), 20× Antibody 2 (Anti-IRAK4 k), and Detection Buffer.
The THP1 plates were prepared by the following method. For each dosing plate, a duplicate for CTG assay was prepared. Two THP-1 T-175 flasks could be used to plate one 384 well plate. The cells were collected from two T-175 flasks into 200 mL centrifuge tubes and spun down at 1200 rpm for 10 min. The supernatant was removed completely and cells were resuspended in 7.5 mL cell culture media. To 5 μL of the cell suspension was added 25 μL of media and 30 μL of Trypan Blue stain. The cells were counted using countess (automated cell counter, Thermo Fisher Scientific) twice and the viability and live cell count was recorded. The actual cell count was […] the live cell count. Based on the count, a cell suspension was prepared in colorless RPMI media for a final concentration of 7.5e6 cells/mL. Using Standard cassette multidrop combi, 20 μL of the 7.5e6 cells/mL cell stock was added to entire 384 well plate but for top half of column 1 (negative control) The multidrop combi was always primed to achieve a steady flow and washed after use with 20 mL de-ionized water followed by 20 mL alcohol. The cells were incubated in 5% CO2 incubator at 37° C.
Dosing was conducted using the following method. To dose assay plates and CTG plate was added 20 nL of compounds in DMSO using Echo (Beckman Coulter), and the plates were incubated at 37° C. for 18 h. The compound plates were spun at 1200 rpm for 1 min before dosing. The compound plate was sealed and properly stored during incubation.
After dosing, an HTRF assay was conducted using the following method. The treatment plates (IRAK4_HTRF) were centrifuged at 600 g for 10 min. Using CyBio Felix, Automated liquid handler (Analytikjena), 13 μL cell culture media was removed. To all columns, 7.5 μL lysis buffer was added, and an additional 7.5 μL of lysis buffer was added to column 1(top half, negative control). The plate was incubated on a shaker at room temperature for 2 h. The plate was spun down at 600 g for 5 min. Custom 20×IRAK4 Antibody obtained from CISBIO Anti-IRAK4-d2 (acceptor Ab) and Anti-IRAK4-K (donor Ab) were diluted to 1× antibody mix Using a multichannel repeater, 4 μL of 1× antibody mix was added to each wellThe plate was spun down at 600 g for 5 min and incubated in the dark at room temperature for 18 h The next day (after 18 hrs), HTRF assay plate was spun down at 600 g for 5 min and read at 665/615 nm using a Envision plate reader.

With `C[C@H](C#N)Nc1cc(-n2ncc3cnc(N)nc32)ncc1-n1cc([C@H]2CC[C@H](CCN3CCN(c4ccc(C5CCC(=O)NC5=O)cc4)CC3)CC2)nn1` (some centres unmarked) [P-231], the DC50 turned out to be 0.001 µM.
In the case of `C[C@H](C#N)Nc1cc(-n2ncc3cc(C#N)cnc32)ncc1-n1cc([C@H]2CC[C@H](CCN3CCC(c4ccc([C@@]5(C)CCC(=O)NC5=O)cc4)C(F)C3)CC2)nn1` (some centres unmarked) [P-311], the “LVL THP1 HTRF YMIN” value is −1.0% and the DC50 is 0.003 µM.
Take `Cc1cc(N2CCN(CC[C@H]3CC[C@H](c4cn(-c5cnc(-n6ncc7cc(C#N)cnc76)cc5N[C@H](C)C#N)nn4)CC3)CC2)ccc1N1CCC(=O)NC1=O` [P-363]: the “LVL THP1 HTRF YMIN” value was found to be 5.0% and the DC50 stood at 0.0076 µM.
As for `C[C@H](C#N)Nc1cc(-n2ncc3cc(C#N)cnc32)ncc1-n1cc([C@H]2CC[C@H](CCN3CCN(c4ccc(N5CCC(=O)NC5=O)cc4)[C@H](C)C3)CC2)nn1` [P-358], the “LVL THP1 HTRF YMIN” value was found to be 0.6% and the DC50 was 0.0048 µM.
Take `CC(F)(F)CNc1cc(-n2ncc3cc(C#N)cnc32)ncc1-n1cc([C@H]2CC[C@H](CCN3CCN(c4ccc(C5CCC(=O)NC5=O)cc4)CC3)CC2)nn1` (some centres unmarked) [P-169]: the DC50 turned out to be 0.026 µM.
Take `C[C@H](C#N)Nc1cc(-n2ncc3cc(C#N)cnc32)ncc1-n1cc([C@H]2CC[C@](O)(CCN3CCN(c4ccc([C@@]5(C)CCC(=O)NC5=O)nc4)CC3)CC2)nn1` (single isomer, unassigned) [P-280]: the “LVL THP1 HTRF YMIN” value was 47.7% and the DC50 turned out to be 0.107 µM.
Regarding `C[C@H](C#N)Nc1cc(-n2ncc3cc(C#N)c(N)nc32)ncc1-n1cc([C@H]2CC[C@H](CCN3CCN(c4cnc([C@@]5(C)CCC(=O)NC5=O)nc4)CC3)CC2)nn1` (single isomer, unassigned) [P-263], the “LVL THP1 HTRF YMIN” value was 9.0% and the DC50 worked out at 0.0257 µM.
Regarding `C[C@H](C#N)Nc1cc(-n2ncc3cc(C#N)cnc32)ncc1-n1cc([C@H]2CC[C@H](CCN3CC4(CC(c5ccc(N6CCC(=O)NC6=O)cc5)C4)C3)CC2)nn1` [P-329], the “LVL THP1 HTRF YMIN” value is given as 2.6% and the DC50 was 0.0059 µM.
Turning to `C[C@H](C#N)Nc1cc(-n2ncc3cc(C#N)cnc32)ncc1-n1cc([C@H]2CC[C@H](CCN3CCC(c4ccc(C5(O)CCC(=O)NC5=O)cc4)CC3)CC2)nn1` (some centres unmarked) [P-339], the “LVL THP1 HTRF YMIN” value is recorded as 93.1% and the DC50 came to 0.0186 µM.
For the compound `C[C@H](C#N)Nc1cc(-n2ncc3cc(C#N)c(N)nc32)ncc1C(=O)N[C@H]1CC[C@H](CCN2CCN(c3ccc([C@@]4(C)CCC(=O)NC4=O)cc3)[C@@H](C)C2)CC1` [P-248], the “LVL THP1 HTRF YMIN” value was found to be 4.1% and the DC50 was 0.004 µM.
In the same order, the values of `C[C@H](C#N)Nc1cc(Nc2ncc(C#N)cn2)ncc1-n1cc([C@H]2CC[C@H](CCN3CCN(c4ccc([C@@]5(C)CCC(=O)NC5=O)cc4)CC3)CC2)nn1` [P-300] are 11.7% and 0.243 µM.
In the same order, the values of `C[C@H](C#N)Nc1cc(-n2ncc3cc(C#N)cnc32)ncc1-n1cc([C@H]2CC[C@H](CCN3CCC4(C3)CN(c3ccc(N5CCC(=O)NC5=O)cc3)C4)CC2)nn1` [P-439] are 11.2% and 0.0924 µM.
On to `C[C@H](C#N)Nc1cc(-n2ncc3cc(C#N)cnc32)ncc1-c1cn(C2CCC(CCN3CCN(c4ccc(C5CCC(=O)NC5=O)cc4)CC3)CC2)nn1` (some centres unmarked) [P-195], for which the “LVL THP1 HTRF YMIN” value worked out at 2.2%.
Take `C[C@H](C#N)Nc1cc(-n2ncc3cc(Cl)cnc32)ncc1-n1cc([C@H]2CC[C@H](CCN3CCN(c4ccc(C5CCC(=O)NC5=O)cc4)CC3)CC2)nn1` (some centres unmarked) [P-375]: the “LVL THP1 HTRF YMIN” value turned out to be 2.5% and the DC50 was found to be 0.0065 µM.
Take `C[C@H](C#N)Nc1cc(-n2ncc3cc(C#N)cnc32)ncc1-n1cc([C@H]2CC[C@H](CCN3CCN(c4ccc([C@@]5(C)CCC(=O)NC5=O)nc4)[C@@H](C)C3)CC2)nn1` (single isomer, unassigned) [P-289]: the “LVL THP1 HTRF YMIN” value is 7.7% and the DC50 was 0.0113 µM.
Turning to `C[C@H](C#N)Nc1cc(-n2ncc3cc(C#N)cnc32)ncc1-n1cc([C@H]2CC[C@H](CCN3CCC(c4ccc(N5CCC(=O)NC5=O)cc4)C(F)(F)C3)CC2)nn1` (single isomer, unassigned) [P-420], the “LVL THP1 HTRF YMIN” value is listed as 1.7% and the DC50 was 0.0262 µM.
Take `CC(F)(F)CNc1cc(-n2ncc3cc(C#N)cnc32)ncc1-n1cc(C2CCC(CCN3CCN(c4ccc(C5CCC(=O)NC5=O)cc4)CC3)CC2)nn1` (centres unmarked) [P-169]: the “LVL THP1 HTRF YMIN” value turned out to be 3.0%.
Turning to `C[C@H](C#N)Nc1cc(-n2ncc3cc(C#N)c(N)nc32)ncc1-n1cc([C@H]2CC[C@H](CCN3[C@@H](C)CN(c4ccc([C@@]5(C)CCC(=O)NC5=O)cc4)C[C@@H]3C)CC2)nn1` [P-251], the “LVL THP1 HTRF YMIN” value turned out to be 1.9% and the DC50 was found to be 0.0098 µM.
On to `N#Cc1cnc2c(cnn2-c2cc(N[C@H]3CCC[C@@H]3O)c(-n3cc([C@H]4CC[C@H](CCN5CCN(c6ccc(C7CCC(=O)NC7=O)cc6)CC5)CC4)nn3)cn2)c1` (some centres unmarked) [P-403], for which the “LVL THP1 HTRF YMIN” value is recorded as 3.7% and the DC50 was found to be 0.0025 µM.
With `C[C@H](C#N)Nc1cc(-n2ncc3cc(C#N)cnc32)ncc1-c1cc([C@H]2CC[C@H](CCN3CCN(c4ccc(C5CCC(=O)NC5=O)cc4)CC3)CC2)no1` (some centres unmarked) [P-211], the DC50 is 0.003 µM.
As for `C[C@H](C#N)Nc1cc(Nc2ncc(C#N)cc2Cl)ncc1-n1cc([C@H]2CC[C@H](CCN3CC4(CC(c5ccc(N6CCC(=O)NC6=O)cc5)C4)C3)CC2)nn1` [P-434], the “LVL THP1 HTRF YMIN” value is on record as 1.9% and the DC50 was found to be 0.0299 µM.
As for `C[C@H](C#N)Nc1cc(-n2ncc3cc(C#N)cnc32)ncc1C(=O)N[C@H]1CC[C@H](CCN2CC[C@H](c3ccc([C@@]4(C)CCC(=O)NC4=O)cc3)C[C@H]2C)CC1` [P-270], the “LVL THP1 HTRF YMIN” value turned out to be 0.2% and the DC50 came to 0.0065 µM.
Consider `COc1cnc2c(cnn2-c2cc(N[C@H](C)C#N)c(-n3cc([C@H]4CC[C@H](CCN5CCN(c6ccc(C7CCC(=O)NC7=O)cc6)CC5)CC4)nn3)cn2)c1` (some centres unmarked) [P-397], for which the “LVL THP1 HTRF YMIN” value is reported as 6.2% and the DC50 was determined as 0.0143 µM.
In the same order, the values of `C[C@H](C#N)Nc1cc(-n2ncc3cc(C#N)cnc32)ncc1C(=O)N[C@H]1CC[C@H](CCN2CCN(c3ccc(C4CCC(=O)NC4=O)cc3)C3(CC3)C2)CC1` (some centres unmarked) [P-191] are 20.4% and 1.79 µM.
As for `C[C@H](C#N)Nc1cc(-n2ncc3cc(C#N)cnc32)ncc1-n1cc([C@H]2CC[C@H](CCN3CCC(c4ccc(N5CCC(=O)NC5=O)cc4)CC3)CC2)nn1` [P-340], the “LVL THP1 HTRF YMIN” value is recorded as 22.4% and the DC50 amounted to 0.582 µM.
On to `C[C@H](C#N)Nc1cc(-n2ncc3cc(C#N)cnc32)ncc1-n1cc(C2CCC(CCN3C[C@@H](C)N(c4ccc(C5CCC(=O)NC5=O)cc4)C[C@@H]3C)CC2)nn1` (some centres unmarked) [P-208], for which the “LVL THP1 HTRF YMIN” value came to 1.4% and the DC50 was determined as 0.009 µM.
Take `C[C@H](C#N)Nc1cc(-n2ncc3cc(C#N)cnc32)ncc1-n1cc(C2CCC(CCN3CCC(c4ccc(C5CCC(=O)NC5=O)cc4)CC3)CC2)nn1` (some centres unmarked) [P-209]: the “LVL THP1 HTRF YMIN” value was found to be 0.9%.
For `C[C@H](C#N)Nc1cc(Nc2ncc(C#N)cc2F)ncc1-n1cc([C@H]2CC[C@H](CCN3CCN(c4ccc([C@@]5(C)CCC(=O)NC5=O)cc4)CC3)CC2)nn1` [P-299], the “LVL THP1 HTRF YMIN” value worked out at 3.5% and the DC50 was found to be 0.0364 µM.
